Source: paper PMC7161086 (Peptides, 2019)

Experiments:
[1] = tested on: Psedomonas aeruginosa ATCC 27853; assay: MIC, additional antimicrobial activities; assay type: cell-based
[2] = tested on: HEK-293 human embryonic kidney cells (ATCC CRL-1573); assay: Cytotoxicity, resazurin test; assay type: cell-based; conditions: performed by CO-ADD
[3] = tested on: Klebsiella pneumoniae ATCC 700603
[4] = tested on: Cryptococcus neoformans var. grubii H99 ATCC 20882; assay: MIC, additional antimicrobial activities; assay type: cell-based
[5] = tested on: Acinetobacter baumannii ATCC 19606; assay: MIC, additional antimicrobial activities; assay type: cell-based
[6] = tested on: Staphylococcus aureus ATCC 43300 MRSA; assay: MIC, additional antimicrobial activities; assay type: cell-based; conditions: for Minimal inhibitory concentration (MIC) Sa: Staphylococcus aureus ATCC 43300 MRSA
[7] = tested on: Candida albicans ATCC 90028; assay: MIC, additional antimicrobial activities; assay type: cell-based
[8] = tested on: Escherichia coli ATCC 25922; assay: MIC, additional antimicrobial activities; assay type: cell-based
[9] = tested on: Escherichia coli K12; assay: MIC assay, broth microdilution; assay type: cell-based; conditions: 37 °C, 24 h, MHB
[10] = tested on: Staphylococcus aureus JE2 MRSA; assay: MIC assay, broth microdilution; assay type: cell-based
[11] = tested on: human red blood cells; assay type: cell-based

Substance: GLFDVI(Orn)(Orn)VASVIGGL [AMP-006]
- Minimal inhibitory concentration (MIC) Pa [1]: > 32 µg/mL
- IC50 HEK-293 [2]: > 32 µg/mL
- Minimal inhibitory concentration (MIC) Kp [3]: > 32 µg/mL
- Minimal inhibitory concentration (MIC) Cn [4]: 32 µg/mL
- Minimal inhibitory concentration (MIC) Ab [5]: > 32 µg/mL
- Minimal inhibitory concentration (MIC) Sa [6]: 32 µg/mL
- Minimal inhibitory concentration (MIC) Ca [7]: > 32 µg/mL
- Minimal inhibitory concentration (MIC) Ec [8]: > 32 µg/mL

Substance: GLFDVIRRVASVIGGL [AMP-012]
- Minimal inhibitory concentration (MIC) Pa [1]: > 32 µg/mL
- Minimal inhibitory concentration (MIC) Ec [9]: 32 µg/mL
- Minimal inhibitory concentration (MIC) Kp [3]: > 32 µg/mL
- Minimal inhibitory concentration (MIC) Cn [4]: 16 µg/mL
- Minimal inhibitory concentration (MIC) Ab [5]: 32 µg/mL
- Minimal inhibitory concentration (MIC) Sa ([10]; Staphylococcus aureus JE2 MRSA, 37 °C, 24 h, MHB): 16 µg/mL
- fold increase in activity (decrease of MIC) against S. aureus ([10]; relative to Cit 1.1): 2 fold
- Minimal inhibitory concentration (MIC) Sa [6]: 16 µg/mL
- fold increase in activity (decrease of MIC) against MRSA strains ([6]; relative to Cit 1.1, MRSA strains JE2 and ATCC 43300): 2 fold
- Minimal inhibitory concentration (MIC) Ca [7]: 16 µg/mL
- Minimal inhibitory concentration (MIC) Ec [8]: 32 µg/mL
- HC50 Human red blood cells [11]: 18.2 µg/mL
